# Laboratory results from ChEMBL document CHEMBL5614385, “A peptide-salinomycin conjugate with a bystander effect reduces the stemness characteristics of ovarian cancer cells and enhances drug sensitivity” (Eur J Med Chem, 2024).
# Active and inactive are the calls of the source. No cut-off for these calls is given here. Non-standard residues stand in square brackets, D forms with d. Residues, ends and D or L forms follow the SMILES beside them. *: point of attachment. X1 = CC[C@@H](C(=O)O)C1CC[C@H](C)C([C@@H](C)[C@H](O)[C@H](C)C(=O)[C@H](CC)C2O[C@]3(C=C[C@@H](NC(=O)CCS*)[C@]4(CC[C@@](C)(C5CC[C@](O)(CC)[C@H](C)O5)O4)O3)[C@H](C)C[C@@H]2C)O1; Sar = CNCC(=O)O
# Columns and labels:
# [1] = tested on: SK-OV-3; assay: Inhibition of AKT phosphorylation in human SK-OV-3 cells at 5 uM incubated for 24 hrs by Western blot analysis; type: cell-based
# [2] = target: Vascular endothelial growth factor receptor 2 (Homo sapiens) (UniProt P35968); assay: Inhibition of VEGFR2 phosphorylation in human SK-OV-3 cells at 5 uM incubated for 24 hrs by Western blot analysis; type: cell-based
# [3] = tested on: SK-OV-3; assay: Antitumor activity against human SK-OV-3 cells xenografted in nude mouse assessed as reduction in oct-4 level administered intravenously every 2 days for 21 days by hematoxylin based immunohistochemistry analysis; type: functional, cell-based; details: route iv, time 21.0 day
# [4] = tested on: SK-OV-3; assay: Effect on CD44 expression in CD44 positive human SK-OV-3 cells; type: functional, cell-based
# [5] = tested on: SK-OV-3/CDDP; assay: Reduction in intracellular GSH level in human SK-OV-3 cells at 5 uM incubated for 36 hrs; type: functional, cell-based
# [6] = tested on: A2780; assay: Antitumor activity against CD44 negative human A2780 cells co-cultured with CD44 positive human SK-OV-3 cells in DMEM medium at 6:4 ratio assessed as induction of cell death incubated for 72 hrs by enzymatic immunoassay; type: functional, cell-based; details: dose 2.5-20 µM
# [7] = tested on: SK-OV-3/CDDP; assay: Sensitization of cisplatin-induced antiproliferative activity against human SK-OV-3/CDDP cells assessed as reduction in cell viability at 1 uM incubated for 72 hrs by CCK8 assay; type: functional, cell-based
# [8] = tested on: SK-OV-3; assay: Inhibition of tumor sphere formation in agarose-treated human SK-OV-3 cells assessed as fold decrease in number of formed spheres at 0.5 to 5 uM incubated for 9 days by imaging analysis; type: functional; details: dose 0.5-5 µM; time 9 day
# [9] = tested on: SK-OV-3/CDDP; assay: Antiproliferative activity against human SK-OV-3/CDDP cells; type: functional, cell-based
# [10] = tested on: SK-OV-3; assay: Downregulation of CD133 expression in human SK-OV-3 tumor stem cells at 10 uM incubated for 36 hrs by flow cytometric analysis; type: functional, cell-based
# [11] = tested on: A2780; assay: Antitumor activity against CD44 negative human A2780 cells expressing GFP co-cultured with CD44 positive human SK-OV-3 cells in DMEM medium at 4:6 ratio assessed as decrease in fluorescence intensity incubated for 72 hrs by enzymatic immunoassay; type: functional, cell-based; details: dose 2.5-20 µM
# [12] = tested on: A2780; assay: Antitumor activity against CD44 negative human A2780 cells assessed as reduction in cell viability incubated for 72 hrs by CCK8 assay; type: functional, cell-based; details: A2780, 72 h
# [13] = tested on: A2780; assay: Antitumor activity against CD44 negative human A2780 cells expressing GFP co-cultured with CD44 positive human SK-OV-3 cells in DMEM medium at 6:4 ratio assessed as decrease in fluorescence intensity incubated for 72 hrs by enzymatic immunoassay; type: functional, cell-based; details: dose 2.5-20 µM
# [14] = target: CD44 antigen (Homo sapiens) (UniProt P16070); assay: Binding affinity to CD44 positive human SK-OV-3 cells at 5 uM incubated for 1 hrs by flow cytometric analysis; type: cell-based
# [15] = tested on: A2780; assay: Binding affinity to CD44 negative human A2780 cells at 5 uM incubated for 1 hrs by flow cytometric analysis; type: functional, cell-based
# [16] = tested on: SK-OV-3/CDDP; assay: Induction of ROS generation in human SK-OV-3/CDDP cells at 5 uM; type: functional, cell-based
# [17] = tested on: SK-OV-3; assay: Antitumor activity against human SK-OV-3 cells xenografted in nude mouse assessed as reduction in Nanog level administered intravenously every 2 days for 21 days by hematoxylin based immunohistochemistry analysis; type: functional, cell-based; details: route iv, time 21.0 day
# [18] = tested on: SK-OV-3; assay: Inhibition of cell migration in human SK-OV-3 cells at 5 uM incubated for 24 hrs by microscope based wound healing assay; type: functional
# [19] = tested on: A2780; assay: Antitumor activity against CD44 negative human A2780 cells co-cultured with CD44 positive human SK-OV-3 cells in DMEM medium at 5:5 ratio assessed as induction of cell death incubated for 72 hrs by enzymatic immunoassay; type: functional, cell-based; details: dose 2.5-20 µM
# [20] = tested on: SK-OV-3; assay: Antitumor activity against CD44 positive human SK-OV-3 cells assessed as reduction in cell viability incubated for 72 hrs by CCK8 assay; type: functional, cell-based; details: SK-OV-3, 72 h
# [21] = tested on: SK-OV-3; assay: Antitumor activity against human SK-OV-3 cells xenografted in nude mouse assessed as tumor growth inhibition at 35 microg/kg, iv administered every 2 days for 21 days; type: functional, organism-based; details: dose 35.0 µg/kg, time 21.0 day
# [22] = tested on: SK-OV-3; assay: Cytotoxicity against CD44 positive human SK-OV-3 cells assessed as reduction in cell viability at 100 uM preincubated with 10 and 100 uM of 4S)-4-[[(2S)-1-[(2S)-1-[(2S)-2-[[(2S)-2-[[(2S)-1-[(2S)-2-acetamido-6-amino-hexanoyl]pyrrolidine-2-carbonyl]amino]-3-hydroxy-propanoyl]amino]-3-hydroxy-propanoyl]pyrrolidine-2-carbonyl]pyrrolidine-2-carbonyl]amino]-5-[[(1S)-1-[[2-[[2-[[2-[[2-[[2-[[2-[[2-[[2-[[2-[[2-[[(1S)-2-amino-1-methyl-2-oxo-ethyl]amino]-2-oxo-ethyl]-methyl-amino]-2-oxo-ethyl]-methyl-amino]-2-oxo-ethyl]-methyl-amino]-2-oxo-ethyl]-methyl-amino]-2-oxo-ethyl]-methyl-amino]-2-oxo-ethyl]-methyl-amino]-2-oxo-ethyl]-methyl-amino]-2-oxo-ethyl]-methyl-amino]-2-oxo-ethyl]-methyl-amino]-2-oxo-ethyl]-methyl-carbamoyl]-3-carboxy-propyl]amino]-5-oxo-pentanoic acid for 1 hrs followed by compound addition and measured after 24 hrs by CCK8 assay; type: functional, cell-based
# [23] = tested on: SK-OV-3/CDDP; assay: Cytotoxicity against human SK-OV-3/CDDP cells assessed as inhibition of cell proliferation incubated for 72 hrs by CCK8 assay; type: functional, cell-based
# [24] = tested on: A2780; assay: Antitumor activity against CD44 negative human A2780 cells expressing GFP co-cultured with CD44 positive human SK-OV-3 cells in DMEM medium at 5:5 ratio assessed as decrease in fluorescence intensity incubated for 72 hrs by enzymatic immunoassay; type: functional, cell-based; details: dose 2.5-20 µM
# [25] = tested on: SK-OV-3; assay: Inhibition of cell invasion in human SK-OV-3 cells incubated for 24 hrs by crystal violet staining based transwell invasion assay; type: functional; details: dose 5.0 µM
# [26] = tested on: SK-OV-3; assay: Antiproliferative activity against human SK-OV-3 cells; type: functional, cell-based
# [27] = tested on: A2780; assay: Antitumor activity against CD44 negative human A2780 cells co-cultured with CD44 positive human SK-OV-3 cells in DMEM medium at 4:6 ratio assessed as induction of cell death incubated for 72 hrs by enzymatic immunoassay; type: functional, cell-based; details: dose 2.5-20 µM
# [28] = tested on: A2780; assay: Antitumor activity against CD44 negative human A2780 cells co-cultured with CD44 positive human SK-OV-3 cells in DMEM medium at varying ratio assessed as inhibition of cell growth at 20 uM incubated for 72 hrs by enzymatic immunoassay relative to control; type: functional
# [29] = Solubility of compound in water; type: physicochemical; details: buffer
# [30] = tested on: DU-145; assay: Cytotoxicity against human DU-145 cells assessed as inhibition of cell growth incubated for 72 hrs by CCK8 assay; type: functional, cell-based; details: DU-145, 72 h
# [31] = tested on: SK-OV-3; assay: Inhibition of cell invasion in human SK-OV-3 cells at 5 uM incubated for 24 hrs by crystal violet staining based transwell invasion assay; type: functional
# [32] = tested on: MIA PaCa-2; assay: Cytotoxicity against human MIA PaCa-2 cells assessed as inhibition of cell growth incubated for 72 hrs by CCK8 assay; type: functional, cell-based; details: MIA PaCa-2, 72 h
# [33] = tested on: SK-OV-3; assay: Inhibition of cell migration in human SK-OV-3 cells at 10 uM incubated for 24 hrs by microscope based wound healing assay; type: functional
# [34] = tested on: ACHN; assay: Cytotoxicity against human ACHN cells assessed as inhibition of cell growth incubated for 72 hrs by CCK8 assay; type: functional, cell-based
# [35] = tested on: CAL-27; assay: Cytotoxicity against human CAL-27 cells assessed as inhibition of cell growth incubated for 72 hrs by CCK8 assay; type: functional, cell-based; details: CAL-27, 72 h
# [36] = tested on: MKN-45; assay: Cytotoxicity against human MKN-45 cells assessed as inhibition of cell growth incubated for 72 hrs by CCK8 assay; type: functional, cell-based; details: MKN-45, 72 h
# [37] = tested on: HeLa; assay: Cytotoxicity against human HeLa cells assessed as inhibition of cell growth incubated for 72 hrs by CCK8 assay; type: functional, cell-based
# [38] = tested on: MDA-MB-231; assay: Cytotoxicity against human MDA-MB-231 cells assessed as inhibition of cell growth incubated for 72 hrs by CCK8 assay; type: functional, cell-based; details: MDA-MB-231, 72 h
# [39] = tested on: A549; assay: Cytotoxicity against human A549 cells assessed as inhibition of cell growth incubated for 72 hrs by CCK8 assay; type: functional, cell-based; details: A549, 72 h
# [40] = tested on: A-431; assay: Cytotoxicity against human A-431 cells assessed as inhibition of cell growth incubated for 72 hrs by CCK8 assay; type: functional, cell-based; details: A-431, 72 h
# [41] = tested on: MCF7; assay: Cytotoxicity against human MCF7 cells assessed as inhibition of cell growth incubated for 72 hrs by CCK8 assay; type: functional, cell-based; details: MCF7, 72 h
# [42] = tested on: HCCLM3; assay: Cytotoxicity against human HCCLM3 cells assessed as inhibition of cell growth incubated for 72 hrs by CCK8 assay; type: functional, cell-based; details: HCCLM3, 72 h
# Sequence of Vascular endothelial growth factor receptor 2 (Homo sapiens) (P35968 whole entry): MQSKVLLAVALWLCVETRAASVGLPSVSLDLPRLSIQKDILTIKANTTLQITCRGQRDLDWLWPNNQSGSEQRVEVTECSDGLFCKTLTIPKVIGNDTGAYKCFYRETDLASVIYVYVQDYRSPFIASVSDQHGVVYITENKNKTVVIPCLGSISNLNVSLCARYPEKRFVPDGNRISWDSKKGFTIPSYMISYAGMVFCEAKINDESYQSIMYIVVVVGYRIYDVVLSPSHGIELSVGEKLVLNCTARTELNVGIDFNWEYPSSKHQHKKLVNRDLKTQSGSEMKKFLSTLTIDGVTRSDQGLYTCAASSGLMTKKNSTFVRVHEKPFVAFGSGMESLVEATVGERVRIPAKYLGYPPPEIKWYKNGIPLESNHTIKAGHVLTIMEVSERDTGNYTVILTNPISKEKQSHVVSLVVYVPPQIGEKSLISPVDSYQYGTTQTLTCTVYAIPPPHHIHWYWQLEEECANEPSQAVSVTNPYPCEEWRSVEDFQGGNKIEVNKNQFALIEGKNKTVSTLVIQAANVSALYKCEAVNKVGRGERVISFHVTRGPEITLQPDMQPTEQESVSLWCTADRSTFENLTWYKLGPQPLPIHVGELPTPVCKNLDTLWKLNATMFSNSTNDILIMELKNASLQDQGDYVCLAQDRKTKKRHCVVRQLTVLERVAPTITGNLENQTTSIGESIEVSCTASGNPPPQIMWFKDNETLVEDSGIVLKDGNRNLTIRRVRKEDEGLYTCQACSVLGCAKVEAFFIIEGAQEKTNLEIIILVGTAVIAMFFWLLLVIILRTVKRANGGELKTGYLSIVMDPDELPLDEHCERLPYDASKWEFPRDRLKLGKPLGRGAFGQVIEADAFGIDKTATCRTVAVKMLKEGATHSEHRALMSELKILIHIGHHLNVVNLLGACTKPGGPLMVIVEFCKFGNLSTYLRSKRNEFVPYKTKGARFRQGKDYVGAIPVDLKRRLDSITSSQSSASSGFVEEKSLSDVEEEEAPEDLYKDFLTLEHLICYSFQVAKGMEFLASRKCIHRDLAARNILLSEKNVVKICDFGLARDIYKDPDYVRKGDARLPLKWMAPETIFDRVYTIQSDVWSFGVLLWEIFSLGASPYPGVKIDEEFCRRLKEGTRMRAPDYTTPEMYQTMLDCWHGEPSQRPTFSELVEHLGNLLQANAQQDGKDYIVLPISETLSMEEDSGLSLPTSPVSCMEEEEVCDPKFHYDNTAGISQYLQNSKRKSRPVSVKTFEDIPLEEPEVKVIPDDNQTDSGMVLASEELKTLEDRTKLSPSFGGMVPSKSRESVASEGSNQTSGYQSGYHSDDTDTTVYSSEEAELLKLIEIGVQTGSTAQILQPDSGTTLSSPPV
# Sequence of CD44 antigen (Homo sapiens) (P16070 whole entry): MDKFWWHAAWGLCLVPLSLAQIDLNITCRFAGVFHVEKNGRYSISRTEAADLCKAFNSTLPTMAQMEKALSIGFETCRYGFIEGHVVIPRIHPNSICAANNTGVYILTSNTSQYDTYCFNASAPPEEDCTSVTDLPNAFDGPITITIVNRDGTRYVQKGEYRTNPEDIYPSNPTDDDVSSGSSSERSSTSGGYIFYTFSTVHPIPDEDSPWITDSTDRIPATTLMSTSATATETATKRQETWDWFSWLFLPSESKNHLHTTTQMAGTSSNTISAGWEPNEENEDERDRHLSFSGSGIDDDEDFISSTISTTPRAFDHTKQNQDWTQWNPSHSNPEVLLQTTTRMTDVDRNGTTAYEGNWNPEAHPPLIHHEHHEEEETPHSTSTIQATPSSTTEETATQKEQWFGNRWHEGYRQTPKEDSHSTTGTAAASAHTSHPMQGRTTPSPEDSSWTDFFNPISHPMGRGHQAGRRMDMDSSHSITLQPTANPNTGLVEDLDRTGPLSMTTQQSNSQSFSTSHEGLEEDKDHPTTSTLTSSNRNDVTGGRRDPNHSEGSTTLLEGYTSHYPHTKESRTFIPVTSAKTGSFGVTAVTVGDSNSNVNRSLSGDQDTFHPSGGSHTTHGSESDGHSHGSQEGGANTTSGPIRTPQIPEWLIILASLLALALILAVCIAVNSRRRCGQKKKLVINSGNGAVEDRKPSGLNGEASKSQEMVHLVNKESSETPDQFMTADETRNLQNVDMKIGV
smiles,measurement,setting,value
CC(=O)N[C@@H](CCCCN)C(=O)N1CCC[C@H]1C(=O)N[C@@H](CO)C(=O)N[C@@H](CO)C(=O)N1CCC[C@H]1C(=O)N1CCC[C@H]1C(=O)N[C@@H](CCC(=O)O)C(=O)N[C@@H](CCC(=O)O)C(=O)N(C)CC(=O)N(C)CC(=O)N(C)CC(=O)N(C)CC(=O)N(C)CC(=O)N(C)CC(=O)N(C)CC(=O)N(C)CC(=O)N(C)CC(=O)N(C)CC(=O)N[C@@H](C)C(N)=O (Ac-KPSSPPEE[Sar][Sar][Sar][Sar][Sar][Sar][Sar][Sar][Sar][Sar]A-NH2),inhibition,[1],Active
same,inhibition,[2],Active
CC[C@@H](C(=O)[O-])C1CC[C@H](C)C([C@@H](C)[C@H](O)[C@H](C)C(=O)[C@H](CC)C2O[C@]3(C=C[C@@H](NC(=O)CCSSC[C@H](NC(=O)CN(C)C(=O)CN(C)C(=O)CN(C)C(=O)CN(C)C(=O)CN(C)C(=O)CN(C)C(=O)CN(C)C(=O)CN(C)C(=O)CN(C)C(=O)CN(C)C(=O)[C@H](CCC(=O)O)NC(=O)[C@H](CCC(=O)O)NC(=O)[C@@H]4CCCN4C(=O)[C@@H]4CCCN4C(=O)[C@H](CO)NC(=O)[C@H](CO)NC(=O)[C@@H]4CCCN4C(=O)[C@H](CCCCN)NC(C)=O)C(N)=O)[C@]4(CC[C@@](C)(C5CC[C@](O)(CC)[C@H](C)O5)O4)O3)[C@H](C)C[C@@H]2C)O1.[Na+] (stereo partly drawn) (Ac-KPSSPPEE[Sar][Sar][Sar][Sar][Sar][Sar][Sar][Sar][Sar][Sar]C(X1)-NH2),Activity,[3],Active
same,Activity,[4],inactive
same,Activity,[5],Active
same,Activity,[6],Dose-Dependent Effect
same,Activity,[7],Active
same,fold change (FC),[8],4.6
same,IC50,[9],18.7 µg/mL
same,Activity,[10],Active
same,Activity,[11],Dose-Dependent Effect
same,IC50,[12],47.1 µM
same,Activity,[13],Dose-Dependent Effect
same,Activity,[14],Active
same,Activity,[15],inactive
same,Activity,[16],Active
same,Activity,[17],Active
same,inhibition,[18],Active
same,Activity,[19],Dose-Dependent Effect
same,inhibition,[1],Active
same,IC50,[20],5.45 µM
same,Activity,[21],Active
same,Activity,[22],inactive
same,inhibition,[2],Active
same,IC50,[23],6.09 µM
same,Activity,[24],Dose-Dependent Effect
same,inhibition,[25],Dose-Dependent Effect
same,IC50,[26],5.21 µg/mL
same,Activity,[27],Dose-Dependent Effect
same,inhibition at 20 µM,[28],> 80%
same,solubility,[29],Soluble
CC[C@@H](C(=O)[C@@H](C)[C@@H](O)[C@H](C)[C@@H]1O[C@@H]([C@@H](CC)C(=O)O)CC[C@@H]1C)[C@H]1O[C@]2(C=C[C@@H](O)[C@]3(CC[C@@](C)([C@H]4CC[C@](O)(CC)[C@H](C)O4)O3)O2)[C@H](C)C[C@@H]1C [SALINOMYCIN],IC50,[30],47.1 µM
same,Activity,[4],inactive
same,inhibition,[31],Active
same,Activity,[7],Active
same,IC50,[32],5.03 µM
same,Activity,[10],Active
same,inhibition,[33],Active
same,IC50,[34],26 µM
same,IC50,[12],0.16 µM
same,IC50,[35],30.2 µM
same,IC50,[36],6.49 µM
same,IC50,[37],25 µM
same,inhibition,[18],inactive
same,inhibition,[1],Active
same,IC50,[20],12.4 µM
same,IC50,[38],0.9 µM
same,IC50,[39],25.1 µM
same,inhibition,[2],Active
same,IC50,[40],5.27 µM
same,IC50,[23],10.3 µM
same,IC50,[41],9.89 µM
same,IC50,[42],7.99 µM
